In test [1] the target is T1, Adenosine receptor A1 (Homo sapiens, UniProt P30542).
T1 sequence (P30542 whole entry): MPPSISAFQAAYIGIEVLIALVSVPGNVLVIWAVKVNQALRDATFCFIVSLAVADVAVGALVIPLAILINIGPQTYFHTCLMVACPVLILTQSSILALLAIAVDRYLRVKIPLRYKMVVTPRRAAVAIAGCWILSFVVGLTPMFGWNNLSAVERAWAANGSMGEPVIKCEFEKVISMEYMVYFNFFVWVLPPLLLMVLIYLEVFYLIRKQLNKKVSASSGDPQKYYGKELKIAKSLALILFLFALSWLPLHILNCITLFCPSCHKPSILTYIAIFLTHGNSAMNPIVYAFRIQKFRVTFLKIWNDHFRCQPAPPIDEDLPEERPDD

The target in test [2] is T1, Adenosine receptor A1. The source holds these as a separate data set.
Test [3] deals with Beta-1 adrenergic receptor (Homo sapiens, UniProt P08588). Type of test: functional.
The next test addresses Vasopressin V1a receptor (Homo sapiens, UniProt P37288).
For another test, the target named is T2, Endothelin-1 receptor (Homo sapiens, UniProt P25101).
T2 sequence (P25101 whole entry): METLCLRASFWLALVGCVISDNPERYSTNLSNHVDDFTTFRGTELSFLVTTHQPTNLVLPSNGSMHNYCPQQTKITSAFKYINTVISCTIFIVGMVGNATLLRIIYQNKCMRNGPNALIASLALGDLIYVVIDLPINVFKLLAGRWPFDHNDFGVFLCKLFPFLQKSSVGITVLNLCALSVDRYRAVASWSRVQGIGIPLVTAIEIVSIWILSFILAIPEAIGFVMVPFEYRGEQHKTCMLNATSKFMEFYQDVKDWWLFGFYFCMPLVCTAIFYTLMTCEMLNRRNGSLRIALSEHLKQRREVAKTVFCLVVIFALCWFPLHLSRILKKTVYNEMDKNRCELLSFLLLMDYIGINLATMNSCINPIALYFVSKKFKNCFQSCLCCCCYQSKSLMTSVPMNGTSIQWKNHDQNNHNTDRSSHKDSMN

For test [4], the target named is T3, Prostaglandin G/H synthase 1 (Rattus norvegicus, UniProt Q63921).
T3 sequence (Q63921 whole entry): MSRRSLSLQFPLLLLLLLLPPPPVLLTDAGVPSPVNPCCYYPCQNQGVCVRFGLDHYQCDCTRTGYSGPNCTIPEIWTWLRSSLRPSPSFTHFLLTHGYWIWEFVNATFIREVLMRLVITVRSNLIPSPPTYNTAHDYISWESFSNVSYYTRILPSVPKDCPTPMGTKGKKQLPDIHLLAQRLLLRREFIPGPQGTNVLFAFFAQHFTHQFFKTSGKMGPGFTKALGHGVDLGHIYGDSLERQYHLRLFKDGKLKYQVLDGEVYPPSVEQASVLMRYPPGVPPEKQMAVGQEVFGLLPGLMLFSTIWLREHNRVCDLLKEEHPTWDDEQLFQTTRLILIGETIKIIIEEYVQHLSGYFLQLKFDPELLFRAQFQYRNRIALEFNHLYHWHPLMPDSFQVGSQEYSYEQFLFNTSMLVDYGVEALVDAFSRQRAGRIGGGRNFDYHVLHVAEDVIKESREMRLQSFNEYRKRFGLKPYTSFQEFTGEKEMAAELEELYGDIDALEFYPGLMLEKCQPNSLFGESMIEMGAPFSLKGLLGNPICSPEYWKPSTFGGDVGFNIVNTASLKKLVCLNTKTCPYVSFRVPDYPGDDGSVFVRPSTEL
Type of test: functional.

For test [5], the target named is Sodium-dependent dopamine transporter (Homo sapiens, UniProt Q01959).
The target of test [6] is T4, Alpha-2A adrenergic receptor (Homo sapiens, UniProt P08913).
T4 sequence (P08913 whole entry): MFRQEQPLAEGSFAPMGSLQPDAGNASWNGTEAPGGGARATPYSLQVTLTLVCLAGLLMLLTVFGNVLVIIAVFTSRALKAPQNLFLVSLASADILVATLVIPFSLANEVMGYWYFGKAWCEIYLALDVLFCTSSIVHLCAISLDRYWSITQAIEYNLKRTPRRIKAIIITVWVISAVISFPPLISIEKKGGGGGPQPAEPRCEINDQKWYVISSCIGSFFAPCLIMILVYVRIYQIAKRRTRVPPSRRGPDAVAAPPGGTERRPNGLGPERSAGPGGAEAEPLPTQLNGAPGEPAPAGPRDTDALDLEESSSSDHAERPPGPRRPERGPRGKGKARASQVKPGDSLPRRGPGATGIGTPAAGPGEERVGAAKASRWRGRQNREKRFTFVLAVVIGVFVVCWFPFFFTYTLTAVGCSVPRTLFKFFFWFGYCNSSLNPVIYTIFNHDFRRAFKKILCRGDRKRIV
The class given is functional, cell-based.

For the next test, the target named is Cannabinoid receptor 1 (Homo sapiens, UniProt P21554). Type of test: functional, cell-based.
In the next test the target is T5, Glucocorticoid receptor (Homo sapiens, UniProt P04150).
T5 sequence (P04150 whole entry): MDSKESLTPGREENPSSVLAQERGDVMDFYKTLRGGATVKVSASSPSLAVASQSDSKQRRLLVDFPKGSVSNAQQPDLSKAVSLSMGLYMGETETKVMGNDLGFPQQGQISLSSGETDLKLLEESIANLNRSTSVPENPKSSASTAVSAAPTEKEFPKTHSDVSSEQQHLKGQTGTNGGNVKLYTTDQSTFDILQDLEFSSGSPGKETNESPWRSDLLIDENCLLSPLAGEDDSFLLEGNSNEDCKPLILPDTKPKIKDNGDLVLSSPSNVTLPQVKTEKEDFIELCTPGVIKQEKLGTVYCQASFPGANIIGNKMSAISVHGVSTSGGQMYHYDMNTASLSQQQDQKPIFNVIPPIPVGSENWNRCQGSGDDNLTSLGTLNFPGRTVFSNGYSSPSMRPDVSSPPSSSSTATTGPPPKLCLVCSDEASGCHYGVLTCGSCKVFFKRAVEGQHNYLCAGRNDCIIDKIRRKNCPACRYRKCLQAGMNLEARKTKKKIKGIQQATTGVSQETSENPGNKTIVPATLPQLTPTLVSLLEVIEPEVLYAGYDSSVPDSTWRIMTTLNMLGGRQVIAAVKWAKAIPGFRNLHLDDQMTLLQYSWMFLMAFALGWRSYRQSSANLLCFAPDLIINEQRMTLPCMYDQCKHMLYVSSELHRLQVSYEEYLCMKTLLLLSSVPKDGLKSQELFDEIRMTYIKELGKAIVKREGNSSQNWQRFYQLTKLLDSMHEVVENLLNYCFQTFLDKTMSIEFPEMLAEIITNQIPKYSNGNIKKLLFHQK
Note: assay procedure not described here.

Sequence of Cannabinoid receptor 1 (P21554 whole entry): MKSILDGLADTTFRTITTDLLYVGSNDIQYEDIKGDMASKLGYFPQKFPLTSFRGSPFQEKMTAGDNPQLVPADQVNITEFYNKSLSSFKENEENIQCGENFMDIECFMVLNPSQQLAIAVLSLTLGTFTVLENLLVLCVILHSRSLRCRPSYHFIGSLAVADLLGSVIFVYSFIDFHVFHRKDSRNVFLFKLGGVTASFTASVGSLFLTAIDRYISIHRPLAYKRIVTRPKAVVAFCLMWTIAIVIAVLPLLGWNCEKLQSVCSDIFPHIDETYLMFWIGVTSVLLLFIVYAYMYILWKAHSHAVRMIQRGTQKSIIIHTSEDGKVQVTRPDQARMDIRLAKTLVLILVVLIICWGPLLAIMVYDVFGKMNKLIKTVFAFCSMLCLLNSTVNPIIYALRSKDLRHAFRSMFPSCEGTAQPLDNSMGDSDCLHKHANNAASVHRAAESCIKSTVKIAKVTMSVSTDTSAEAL
Sequence of Sodium-dependent dopamine transporter (Q01959 whole entry): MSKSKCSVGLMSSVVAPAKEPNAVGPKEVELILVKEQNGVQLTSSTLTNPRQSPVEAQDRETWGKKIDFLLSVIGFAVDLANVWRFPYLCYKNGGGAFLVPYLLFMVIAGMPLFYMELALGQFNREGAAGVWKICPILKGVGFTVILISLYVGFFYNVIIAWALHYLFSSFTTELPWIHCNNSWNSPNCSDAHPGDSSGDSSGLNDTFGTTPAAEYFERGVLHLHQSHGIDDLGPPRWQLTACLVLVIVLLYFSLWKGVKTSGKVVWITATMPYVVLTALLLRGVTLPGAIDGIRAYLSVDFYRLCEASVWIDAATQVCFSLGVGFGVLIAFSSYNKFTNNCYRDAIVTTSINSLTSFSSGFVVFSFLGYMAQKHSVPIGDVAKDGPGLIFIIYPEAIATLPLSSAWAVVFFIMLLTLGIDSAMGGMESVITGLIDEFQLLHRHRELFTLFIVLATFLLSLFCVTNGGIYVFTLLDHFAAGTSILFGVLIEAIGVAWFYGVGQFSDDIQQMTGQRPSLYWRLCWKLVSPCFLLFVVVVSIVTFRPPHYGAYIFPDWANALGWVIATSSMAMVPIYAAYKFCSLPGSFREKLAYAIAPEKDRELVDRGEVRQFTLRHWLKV
Sequence of Vasopressin V1a receptor (P37288 whole entry): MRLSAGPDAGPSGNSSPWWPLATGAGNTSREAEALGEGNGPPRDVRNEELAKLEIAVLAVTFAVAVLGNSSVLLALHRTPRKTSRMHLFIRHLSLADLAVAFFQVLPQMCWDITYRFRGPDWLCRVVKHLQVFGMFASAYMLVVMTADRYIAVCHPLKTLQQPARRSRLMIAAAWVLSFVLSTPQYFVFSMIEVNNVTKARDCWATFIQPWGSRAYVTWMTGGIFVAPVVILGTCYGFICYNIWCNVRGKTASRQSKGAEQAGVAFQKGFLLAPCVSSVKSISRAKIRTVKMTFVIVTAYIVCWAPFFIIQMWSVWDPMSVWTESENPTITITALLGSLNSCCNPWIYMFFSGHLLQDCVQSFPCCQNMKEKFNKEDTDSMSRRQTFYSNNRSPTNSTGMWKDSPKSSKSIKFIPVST
Sequence of Beta-1 adrenergic receptor (P08588 whole entry): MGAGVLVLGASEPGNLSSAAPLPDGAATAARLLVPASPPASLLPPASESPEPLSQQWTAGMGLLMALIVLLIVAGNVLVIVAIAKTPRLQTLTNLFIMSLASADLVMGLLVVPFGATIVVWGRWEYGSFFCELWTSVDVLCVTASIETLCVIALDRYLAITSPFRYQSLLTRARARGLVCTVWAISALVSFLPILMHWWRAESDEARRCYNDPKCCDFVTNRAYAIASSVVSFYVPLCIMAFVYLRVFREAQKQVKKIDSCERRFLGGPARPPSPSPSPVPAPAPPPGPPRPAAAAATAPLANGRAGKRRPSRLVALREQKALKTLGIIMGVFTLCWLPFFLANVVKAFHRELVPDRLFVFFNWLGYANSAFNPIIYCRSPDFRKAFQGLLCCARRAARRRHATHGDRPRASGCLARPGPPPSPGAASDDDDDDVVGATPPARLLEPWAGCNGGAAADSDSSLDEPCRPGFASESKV

In general, AC50 refers to the concentration giving half of the maximal activity seen. A lower AC50 goes with greater potency. Consider `CCC(CC)(CC(=O)Nc1cccc(/C=C/c2nc(C3CCC3)cs2)c1)C(=O)O`, for which the concentration at half-maximal activity (AC50) at Adenosine receptor A1 [1] is more than 30 µM; on Adenosine receptor A1 [2], more than 30 µM; in test [3] it was 14 µM; on Vasopressin V1a receptor it was more than 30 µM; at Endothelin-1 receptor, more than 30 µM; in test [4], more than 30 µM. The compound also yielded an AC50 in test [5] of more than 30 µM.

Regarding `CC[C@@H](C(N)=O)N1CCCC1=O`, the half-maximal activity concentration (AC50) (at Adenosine receptor A1 [1]; in test [6]; in test [3]; at Vasopressin V1a receptor; at Cannabinoid receptor 1; at Endothelin-1 receptor) was more than 30 µM throughout. Also, the half-maximal activity concentration (AC50) in test [4] and in test [5] was more than 30 µM in each case.

As to `O=C(Oc1ccc2c(c1)CCCN2C(=O)C(Cl)Cl)c1ccco1` [QUINFAMIDE], the AC50 at Adenosine receptor A1 [2] was 29.4 µM.

As to `CN1CCN(C2=Nc3ccccc3Sc3ccc(Cl)cc32)CC1` [CLOTHIAPINE], the half-maximal activity concentration (AC50) (on Adenosine receptor A1 [2]; in test [6]) was more than 30 µM throughout.

On to `O=[N+]([O-])c1cn2c(n1)OC[C@@H](OCc1ccc(OC(F)(F)F)cc1)C2` [PRETOMANID], for which the AC50 is more than 30 µM at Adenosine receptor A1 [1]; more than 10 µM in [3]; more than 10 µM at Vasopressin V1a receptor; more than 30 µM at Endothelin-1 receptor; more than 10 µM in [5].

For the compound `CN(C)CCC=C1c2ccccc2C=Cc2ccccc21` [CYCLOBENZAPRINE], the AC50 at Adenosine receptor A1 [1] is more than 30 µM; in test [6], more than 10 µM; in test [3], more than 10 µM; on Vasopressin V1a receptor it was more than 30 µM; on Cannabinoid receptor 1, more than 30 µM; on Endothelin-1 receptor it was more than 30 µM. Further, the AC50 (at Glucocorticoid receptor; in test [4]; in test [5]) was more than 30 µM each time.

As for `C=CCN1C[C@H](C(=O)N(CCCN(C)C)C(=O)NCC)C[C@@H]2c3cccc4[nH]cc(c34)C[C@H]21` [CABERGOLINE], the AC50 at Adenosine receptor A1 [1] was more than 10 µM; in [3], more than 10 µM; on Vasopressin V1a receptor, more than 10 µM; on Cannabinoid receptor 1, more than 30 µM; on Glucocorticoid receptor, more than 10 µM; in [4] it was more than 10 µM. In addition, half-maximal activity in [5] (AC50) was put at 5.4 µM.

`Clc1cc(Cl)c(OCC#CI)cc1Cl` [HALOPROGIN] showed a half-maximal activity concentration (AC50) on Adenosine receptor A1 [2] of 15.4 µM.

Regarding `CCOc1ccc(Cc2cc([C@@H]3O[C@H](CO)[C@@H](O)[C@H](O)[C@H]3O)ccc2Cl)cc1` [DAPAGLIFLOZIN], the AC50 at Adenosine receptor A1 [1] was more than 30 µM; in test [3] it was more than 10 µM; at Vasopressin V1a receptor it was more than 30 µM; on Glucocorticoid receptor, more than 30 µM; in test [4], more than 30 µM; in test [5], more than 30 µM.

Take `CC(=O)OCC1=C(C(=O)O)N2C(=O)[C@@H](NC(=O)[C@H](N)c3ccccc3)[C@H]2SC1` [CEPHALOGLYCIN]: the AC50 at Adenosine receptor A1 [2] was more than 30 µM.

The compound `NC1CCN(c2c(F)cc3c(=O)c(C(=O)O)cn(C4CC4)c3c2Cl)C1` (stereo unspecified) [CLINAFLOXACIN] gave an AC50 at Endothelin-1 receptor of more than 300 µM.

Consider `COc1ccc(C(=O)Nc2ccccc2CCC2CCCCN2C)cc1` (stereo unspecified) [ENCAINIDE], for which the AC50 is more than 30 µM on Adenosine receptor A1 [1]; more than 10 µM in test [6]; more than 10 µM in [3]; more than 10 µM at Vasopressin V1a receptor; more than 30 µM at Cannabinoid receptor 1; more than 30 µM at Endothelin-1 receptor. In addition, the AC50 on Glucocorticoid receptor is more than 30 µM; in test [4] it was more than 30 µM; in test [5], more than 10 µM.

Turning to `CCOc1ccccc1OCC1CNCCO1` (stereo unspecified) [VILOXAZINE], the AC50 at Adenosine receptor A1 [1] was more than 30 µM; in [6], more than 10 µM; in test [3], more than 10 µM; at Vasopressin V1a receptor it was more than 10 µM; at Cannabinoid receptor 1, more than 30 µM; at Endothelin-1 receptor, more than 30 µM. Moreover, the values for the concentration at half-maximal activity (AC50) (at Glucocorticoid receptor; in [4]; in test [5]) were more than 30 µM, more than 30 µM and more than 10 µM, respectively.

With `CN(C)CC/C=C1\c2ccccc2CSc2ccccc21` [DOTHIEPIN], the AC50 is more than 30 µM on Adenosine receptor A1 [1]; 29 µM in [6]; more than 30 µM in test [3]; more than 30 µM on Vasopressin V1a receptor; more than 30 µM at Cannabinoid receptor 1; more than 30 µM on Endothelin-1 receptor. The figures for the concentration at half-maximal activity (AC50) (at Glucocorticoid receptor; in [4]; in [5]) were more than 30 µM, more than 30 µM and 20 µM, respectively.

With `Cc1cc(C)c(NC(=O)CN(CC(=O)O)CC(=O)O)c(C)c1Br` [MEBROFENIN], the AC50 (at Adenosine receptor A1 [2]; in test [6]; at Cannabinoid receptor 1) was more than 30 µM in each case.

On to `CCCC1O[C@@H]2C[C@H]3[C@@H]4CCC5=CC(=O)C=C[C@]5(C)[C@H]4[C@@H](O)C[C@]3(C)[C@]2(C(=O)CO)O1` (stereo partly specified) [BUDESONIDE], for which the half-maximal activity concentration (AC50) (on Adenosine receptor A1 [1]; in [6]; in test [3]; at Vasopressin V1a receptor; in test [4]; in [5]) was more than 10 µM each time.

The compound `C=CCCCCCCCCC(=O)O` [UNDECYLENIC ACID] showed a half-maximal activity concentration (AC50) at Adenosine receptor A1 [2] of more than 30 µM.

In the case of `CC(C)(C)C(=O)OCOC(=O)[C@@H]1N2C(=O)[C@@H](NC(=O)[C@H](N)c3ccccc3)[C@H]2SC1(C)C` [PIVAMPICILLIN], the AC50 at Adenosine receptor A1 [2] is more than 30 µM.

Consider `CN(C)CCc1c[nH]c2ccc(C[C@H]3COC(=O)N3)cc12` [ZOLMITRIPTAN], for which the AC50 (on Adenosine receptor A1 [1]; in test [6]; in [3]; at Vasopressin V1a receptor; on Endothelin-1 receptor; on Glucocorticoid receptor) was more than 30 µM in each case. Besides, the AC50 in test [4] and in test [5] was more than 30 µM throughout.

On to `CCCCS(=O)(=O)N[C@@H](Cc1ccc(OCCCCC2CCNCC2)cc1)C(=O)O` [TIROFIBAN], for which the concentration at half-maximal activity (AC50) on Adenosine receptor A1 [2] was more than 30 µM.

In turn, `Nc1ccncc1N` [AMIFAMPRIDINE] showed an AC50 at Adenosine receptor A1 [2] of more than 30 µM.

The record behind these values is ChEMBL document CHEMBL5291721, “A preclinical secondary pharmacology resource illuminates target-adverse drug reaction associations of marketed drugs” (Nat Commun, 2023).
